From patent publication US9695155B2, “Herbicidal substituted pyrimidinyloxy benzene compounds” (E. I. DU PONT DE NEMOURS AND COMPANY, priority 2013, dated 2017)

Experiments:
[1] = tested on: chamomile; test: Test D postemergence; format: in vivo, Matricaria inodora; conditions: Tripleurospermum inodorum, post-emergence, scale 0 to 100 (0 no effect, 100 complete control), read-out: Plant response rating, Chamomile
Summary of the method: (§1)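 Visual ratings from 0 (no effect) to 100 (complete control) relative to untreated plants were taken 7–21 days after treatment. Chemicals in a surfactant-containing solvent mixture were applied preemergence to seeds in silt loam, or postemergence to plants 2–18 cm tall (1–4 leaves) grown in a peat-based potting medium.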

[2] = tested on: canarygrass; test: Test D preemergence; format: in vivo, Phalaris minor; conditions: Phalaris minor, pre-emergence, scale 0-100, read-out: Plant response rating, Canarygrass
Summary of the method: as §1

[3] = tested on: bromegrass, downy; test: Test D preemergence; format: in vivo, Bromus tectorum; conditions: Bromus tectorum, pre-emergence, scale 0-100, read-out: Plant response rating, Bromegrass, Downy
Summary of the method: as §1

[4] = tested on: green foxtail; test: Test D preemergence; format: in vivo, Setaria viridis; conditions: Setaria viridis, pre-emergence, scale 0-100, read-out: Plant response rating, Foxtail, Green
Summary of the method: as §1

[5] = tested on: wild oat; test: Test D postemergence; format: in vivo, Avena fatua; conditions: Avena fatua, post-emergence, scale 0 to 100 (0 no effect, 100 complete control), read-out: Plant response rating, Oat, Wild
Summary of the method: as §1

[6] = tested on: winter barley; test: Test D preemergence; format: in vivo, Hordeum vulgare; conditions: Hordeum vulgare, pre-emergence, scale 0-100, read-out: Plant response rating, Barley, Winter
Summary of the method: as §1

[7] = tested on: spring barley; test: Test D preemergence; format: in vivo, Hordeum vulgare; conditions: Hordeum vulgare, pre-emergence, scale 0-100, read-out: Plant response rating, Barley, Spring
Summary of the method: as §1

[8] = tested on: wild radish; test: Test D postemergence; format: in vivo, Raphanus raphanistrum; conditions: Raphanus raphanistrum, post-emergence, scale 0 to 100 (0 no effect, 100 complete control), read-out: Plant response rating, Radish, Wild
Summary of the method: as §1

[9] = tested on: sandbur; test: Test E postemergence; format: in vivo, Cenchrus echinatus; conditions: Cenchrus echinatus, post-emergence, read-out: Plant response rating, Sandbur
Summary of the method: (§2)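 Response was scored visually on a 0-100 scale (100 = complete control) versus controls after 14 to 21 days in the greenhouse. Test chemicals, formulated with surfactant in a non-phytotoxic solvent mixture, had been applied preemergence to seeds in silt loam soil or postemergence to 1- to 4-leaf plants in potting medium.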

[10] = tested on: waterhemp_RES2 (ALS & HPPD resistant common waterhemp); test: Test E postemergence; format: in vivo, Amaranthus rudis; conditions: Amaranthus tuberculatus, post-emergence, read-out: Plant response rating, Waterhemp_RES2
Summary of the method: as §2

[11] = tested on: waterhemp; test: Test E postemergence; format: in vivo, Amaranthus rudis; conditions: Amaranthus tuberculatus, post-emergence, read-out: Plant response rating, Waterhemp
Summary of the method: as §2

[12] = tested on: hairy beggarticks; test: Test E postemergence; format: in vivo, Bidens pilosa; conditions: Bidens pilosa, post-emergence, read-out: Plant response rating, Beggarticks
Summary of the method: as §2

[13] = tested on: galium; test: Test D preemergence; format: in vivo, Galium aparine; conditions: Galium, pre-emergence, scale 0-100, read-out: Plant response rating, Galium
Summary of the method: as §1

[14] = Postemergence, 31 g ai/ha, scale 0 to 100
[15] = Postemergence, 62 g ai/ha, scale 0 to 100
[16] = Postemergence, 125 g ai/ha, scale 0 to 100
[17] = Postemergence, 250 g ai/ha, scale 0 to 100
[18] = postemergence, 16 g ai/ha, scale 0 to 100, 0 no effect, 100 complete control

**Q.** Which results are given for `N#Cc1cccc(Oc2ncc(Cl)cn2)c1-n1cc(C(F)(F)F)cn1` [Compound 58, 3-[(5-chloro-2-pyrimidinyl)oxy]-2-[4-(trifluoromethyl)-1H-pyrazol-1-yl]benzonitrile]?
**A.** pest or weed control at 31 g/ha ([1]; 31 g ai/ha): 10%; pest or weed control at 62 g/ha ([1]; 62 g ai/ha): 25%; pest or weed control at 125 g/ha ([1]; 125 g ai/ha): 35%; pest or weed control at 250 g/ha ([1]; 250 g ai/ha): 35%; pest or weed control at 31 g/ha ([2]; 31 g ai/ha): 20%; pest or weed control at 62 g/ha ([2]; 62 g ai/ha): 55%; pest or weed control at 125 g/ha ([2]; 125 g ai/ha): 100%; pest or weed control at 250 g/ha ([2]; 250 g ai/ha): 100%; pest or weed control at 31 g/ha ([3]; 31 g ai/ha): 10%; pest or weed control at 62 g/ha ([3]; 62 g ai/ha): 15%; pest or weed control at 125 g/ha ([3]; 125 g ai/ha): 35%; pest or weed control at 250 g/ha ([3]; 250 g ai/ha): 75%; pest or weed control at 31 g/ha ([4]; 31 g ai/ha): 100%; pest or weed control at 62 g/ha ([4]; 62 g ai/ha): 100%; pest or weed control at 125 g/ha ([4]; 125 g ai/ha): 100%; pest or weed control at 250 g/ha ([4]; 250 g ai/ha): 100%; pest or weed control at 31 g/ha ([5]; 31 g ai/ha): 30%; pest or weed control at 62 g/ha ([5]; 62 g ai/ha): 35%; pest or weed control at 125 g/ha ([5]; 125 g ai/ha): 35%; pest or weed control at 250 g/ha ([5]; 250 g ai/ha): 55%; plant injury at 31 g/ha ([6]; 31 g ai/ha): 10%; plant injury at 62 g/ha ([6]; 62 g ai/ha): 35%; plant injury at 125 g/ha ([6]; 125 g ai/ha): 80%; plant injury at 250 g/ha ([6]; 250 g ai/ha): 100%; plant injury at 31 g/ha ([7]; 31 g ai/ha): 10%; plant injury at 62 g/ha ([7]; 62 g ai/ha): 50%; plant injury at 125 g/ha ([7]; 125 g ai/ha): 85%; plant injury at 250 g/ha ([7]; 250 g ai/ha): 100%; pest or weed control at 31 g/ha ([8]; 31 g ai/ha): 65%; pest or weed control at 62 g/ha ([8]; 62 g ai/ha): 70%; pest or weed control at 125 g/ha ([8]; 125 g ai/ha): 90%; pest or weed control at 250 g/ha ([8]; 250 g ai/ha): 95%; pest or weed control at 31 g/ha [9, 14]: 10%; pest or weed control at 62 g/ha [9, 15]: 10%; pest or weed control at 125 g/ha [9, 16]: 20%; pest or weed control at 250 g/ha [9, 17]: 55%; pest or weed control at 16 g/ha [9, 18]: 0%; pest or weed control at 31 g/ha [10, 14]: 90%; pest or weed control at 62 g/ha [10, 15]: 90%; pest or weed control at 125 g/ha [10, 16]: 95%; pest or weed control at 250 g/ha [10, 17]: 100%; pest or weed control at 16 g/ha [10, 18]: 80%; pest or weed control at 31 g/ha [11, 14]: 85%; pest or weed control at 62 g/ha [11, 15]: 95%; pest or weed control at 125 g/ha [11, 16]: 100%; pest or weed control at 250 g/ha [11, 17]: 100%; pest or weed control at 16 g/ha [11, 18]: 75%; pest or weed control at 31 g/ha [12, 14]: 65%; pest or weed control at 62 g/ha [12, 15]: 80%; pest or weed control at 125 g/ha [12, 16]: 90%; pest or weed control at 250 g/ha [12, 17]: 95%; pest or weed control at 16 g/ha [12, 18]: 60%; pest or weed control at 31 g/ha ([13]; 31 g ai/ha): 65%; pest or weed control at 62 g/ha ([13]; 62 g ai/ha): 100%; pest or weed control at 125 g/ha ([13]; 125 g ai/ha): 100%; pest or weed control at 250 g/ha ([13]; 250 g ai/ha): 100%
